Source: PubChem BioAssay (NCI)
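Assay format: 96-well plates, 48-hour exposure. Abbreviation: GI50, concentration required for 50% inhibition of growth. TGI: concentration producing complete growth inhibition.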

How the values were obtained:
Assay in all cases: NCI tumour cell line growth inhibition, 48 h
[1] = system: 786-0 renal
[2] = system: A498 renal
[3] = system: A549 NSCLC
[4] = system: ACHN renal
[5] = system: BT-549 breast
[6] = system: CAKI-1 renal
[7] = system: CCRF-CEM leukemia
[8] = system: COLO 205 colon
[9] = system: DU-145 prostate
[10] = system: EKVX NSCLC
[11] = system: HCC-2998 colon
[12] = system: HCT-116 colon
[13] = system: HCT-15 colon
[14] = system: HL-60(TB) leukemia
[15] = system: HOP-62 NSCLC
[16] = system: HOP-92 NSCLC
[17] = system: HS 578T breast
[18] = system: HT29 colon
[19] = system: IGROV1 ovarian
[20] = system: K-562 leukemia
[21] = system: KM12 colon
[22] = system: LOX IMVI melanoma
[23] = system: M14 melanoma
[24] = system: MCF7 breast
[25] = system: MDA-MB-231 breast
[26] = system: MDA-MB-435
[27] = system: MOLT-4 leukemia
[28] = system: NCI-H226 lung
[29] = system: NCI-H23 lung
[30] = system: NCI-H460 lung
[31] = system: NCI-H522 lung
[32] = system: NCI/ADR-RES ovarian
[33] = system: OVCAR-3 ovarian
[34] = system: OVCAR-4 ovarian
[35] = system: OVCAR-5 ovarian
[36] = system: OVCAR-8 ovarian
[37] = system: PC-3 prostate
[38] = system: RPMI-8226 leukemia
[39] = system: RXF 393 renal
[40] = system: SF-268 CNS
[41] = system: SF-295 CNS
[42] = system: SF-539 CNS
[43] = system: SK-MEL-2 melanoma
[44] = system: SK-MEL-28 melanoma
[45] = system: SK-MEL-5 melanoma
[46] = system: SK-OV-3 ovarian
[47] = system: SN12C renal
[48] = system: SNB-19 CNS
[49] = system: SNB-75 CNS
[50] = system: SW-620 colon
[51] = system: T-47D breast
[52] = system: TK-10 renal
[53] = system: U251 CNS
[54] = system: UACC-257 melanoma
[55] = system: UACC-62 melanoma
[56] = system: UO-31 renal
[57] = system: MALME-3M melanoma

SMILES: S=C(Nc1ccccc1)N1CCn2c1nsc2=Nc1ccccc1
- GI50 [1]: 53.3 µM
- TGI [1]: > 100 µM
- GI50 [2]: 77.9 µM
- TGI [2]: > 100 µM
- GI50 [3]: > 100 µM
- TGI [3]: > 100 µM
- GI50 [4]: 50.3 µM
- TGI [4]: > 100 µM
- GI50 [5]: 76.7 µM
- TGI [5]: > 100 µM
- GI50 [6]: > 100 µM
- TGI [6]: > 100 µM
- GI50 [7]: 31.4 µM
- TGI [7]: > 100 µM
- GI50 [8]: > 100 µM
- TGI [8]: > 100 µM
- GI50 [9]: > 100 µM
- TGI [9]: > 100 µM
- GI50 [10]: > 100 µM
- TGI [10]: > 100 µM
- GI50 [11]: > 100 µM
- TGI [11]: > 100 µM
- GI50 [12]: 34.6 µM
- TGI [12]: > 100 µM
- GI50 [13]: 78.2 µM
- TGI [13]: > 100 µM
- GI50 [14]: > 100 µM
- TGI [14]: > 100 µM
- GI50 [15]: > 100 µM
- TGI [15]: > 100 µM
- GI50 [16]: 92.7 µM
- TGI [16]: > 100 µM
- GI50 [17]: 53.4 µM
- TGI [17]: > 100 µM
- GI50 [18]: > 100 µM
- TGI [18]: > 100 µM
- GI50 [19]: 50.2 µM
- TGI [19]: > 100 µM
- GI50 [20]: 31.3 µM
- TGI [20]: > 100 µM
- GI50 [21]: > 100 µM
- TGI [21]: > 100 µM
- GI50 [22]: 29.1 µM
- TGI [22]: > 100 µM
- GI50 [23]: > 100 µM
- TGI [23]: > 100 µM
- GI50 [24]: > 100 µM
- TGI [24]: > 100 µM
- GI50 [25]: 34.8 µM
- TGI [25]: > 100 µM
- GI50 [26]: > 100 µM
- TGI [26]: > 100 µM
- GI50 [27]: 56.5 µM
- TGI [27]: > 100 µM
- GI50 [28]: 61.6 µM
- TGI [28]: > 100 µM
- GI50 [29]: 41.1 µM
- TGI [29]: > 100 µM
- GI50 [30]: > 100 µM
- TGI [30]: > 100 µM
- GI50 [31]: 46.2 µM
- TGI [31]: > 100 µM
- GI50 [32]: > 100 µM
- TGI [32]: > 100 µM
- GI50 [33]: 90 µM
- TGI [33]: > 100 µM
- GI50 [34]: > 100 µM
- TGI [34]: > 100 µM
- GI50 [35]: > 100 µM
- TGI [35]: > 100 µM
- GI50 [36]: > 100 µM
- TGI [36]: > 100 µM
- GI50 [37]: 53.3 µM
- TGI [37]: > 100 µM
- GI50 [38]: 40.9 µM
- TGI [38]: > 100 µM
- GI50 [39]: > 100 µM
- TGI [39]: > 100 µM
- GI50 [40]: > 100 µM
- TGI [40]: > 100 µM
- GI50 [41]: 40.4 µM
- TGI [41]: > 100 µM
- GI50 [42]: > 100 µM
- TGI [42]: > 100 µM
- GI50 [43]: > 100 µM
- TGI [43]: > 100 µM
- GI50 [44]: > 100 µM
- TGI [44]: > 100 µM
- GI50 [45]: 37.8 µM
- TGI [45]: > 100 µM
- GI50 [46]: > 100 µM
- TGI [46]: > 100 µM
- GI50 [47]: > 100 µM
- TGI [47]: > 100 µM
- GI50 [48]: > 100 µM
- TGI [48]: > 100 µM
- GI50 [49]: 66.5 µM
- TGI [49]: > 100 µM
- GI50 [50]: 48.4 µM
- TGI [50]: > 100 µM
- GI50 [51]: > 100 µM
- TGI [51]: > 100 µM
- GI50 [52]: 26.6 µM
- TGI [52]: 95 µM
- GI50 [53]: 33 µM
- TGI [53]: > 100 µM
- GI50 [54]: > 100 µM
- TGI [54]: > 100 µM
- GI50 [55]: 45.9 µM
- TGI [55]: > 100 µM
- GI50 [56]: > 100 µM
- TGI [56]: > 100 µM

SMILES: CCC1OC(/C(C)=C/C(C)/C=C/C2C(C)C2/C=C/C2OC(CC(=O)O)CC(O)C2O)CC=C1C (stereo not drawn)
- GI50 [1]: > 50 µM
- TGI [1]: > 50 µM
- GI50 [2]: > 50 µM
- TGI [2]: > 50 µM
- GI50 [3]: > 50 µM
- TGI [3]: > 50 µM
- GI50 [4]: > 50 µM
- TGI [4]: > 50 µM
- GI50 [5]: > 50 µM
- TGI [5]: > 50 µM
- GI50 [6]: > 50 µM
- TGI [6]: > 50 µM
- GI50 [7]: > 50 µM
- TGI [7]: > 50 µM
- GI50 [8]: > 50 µM
- TGI [8]: > 50 µM
- GI50 [9]: > 50 µM
- TGI [9]: > 50 µM
- GI50 [10]: > 50 µM
- TGI [10]: > 50 µM
- GI50 [11]: > 50 µM
- TGI [11]: > 50 µM
- GI50 [12]: > 50 µM
- TGI [12]: > 50 µM
- GI50 [13]: > 50 µM
- TGI [13]: > 50 µM
- GI50 [15]: > 50 µM
- TGI [15]: > 50 µM
- GI50 [17]: > 50 µM
- TGI [17]: > 50 µM
- GI50 [18]: > 50 µM
- TGI [18]: > 50 µM
- GI50 [19]: > 50 µM
- TGI [19]: > 50 µM
- GI50 [20]: > 50 µM
- TGI [20]: > 50 µM
- GI50 [21]: > 50 µM
- TGI [21]: > 50 µM
- GI50 [22]: > 50 µM
- TGI [22]: > 50 µM
- GI50 [23]: > 50 µM
- TGI [23]: > 50 µM
- GI50 [57]: 1.99 µM
- TGI [57]: > 50 µM
- GI50 [24]: > 50 µM
- TGI [24]: > 50 µM
- GI50 [26]: > 50 µM
- TGI [26]: > 50 µM
- GI50 [27]: > 50 µM
- TGI [27]: > 50 µM
- GI50 [28]: > 50 µM
- TGI [28]: > 50 µM
- GI50 [29]: > 50 µM
- TGI [29]: > 50 µM
- GI50 [30]: > 50 µM
- TGI [30]: > 50 µM
- GI50 [31]: > 50 µM
- TGI [31]: > 50 µM
- GI50 [32]: 14.4 µM
- TGI [32]: > 50 µM
- GI50 [34]: > 50 µM
- TGI [34]: > 50 µM
- GI50 [35]: > 50 µM
- TGI [35]: > 50 µM
- GI50 [36]: > 50 µM
- TGI [36]: > 50 µM
- GI50 [37]: > 50 µM
- TGI [37]: > 50 µM
- GI50 [38]: > 50 µM
- TGI [38]: > 50 µM
- GI50 [39]: > 50 µM
- TGI [39]: > 50 µM
- GI50 [40]: > 50 µM
- TGI [40]: > 50 µM
- GI50 [41]: > 50 µM
- TGI [41]: > 50 µM
- GI50 [42]: > 50 µM
- TGI [42]: > 50 µM
- GI50 [43]: > 50 µM
- TGI [43]: > 50 µM
- GI50 [44]: > 50 µM
- TGI [44]: > 50 µM
- GI50 [45]: > 50 µM
- TGI [45]: > 50 µM
- GI50 [46]: > 50 µM
- TGI [46]: > 50 µM
- GI50 [47]: > 50 µM
- TGI [47]: > 50 µM
- GI50 [48]: > 50 µM
- TGI [48]: > 50 µM
- GI50 [49]: > 50 µM
- TGI [49]: > 50 µM
- GI50 [50]: > 50 µM
- TGI [50]: > 50 µM
- GI50 [51]: > 50 µM
- TGI [51]: > 50 µM
- GI50 [52]: 9.6 µM
- TGI [52]: > 50 µM
- GI50 [53]: > 50 µM
- TGI [53]: > 50 µM
- GI50 [54]: > 50 µM
- TGI [54]: > 50 µM
- GI50 [55]: > 50 µM
- TGI [55]: > 50 µM
- GI50 [56]: > 50 µM
- TGI [56]: > 50 µM
